Legend:
[1] = Plasma pharmacokinetics of cocktail index drugs and their metabolites, five-phase crossover trial; conditions: for AUC(0-t) / AUC(0-inf) / Cmax / Tmax / half-life: human, plasma, oral; for AUC(0-t) / AUC(0-inf) / Cmax: geometric mean (geometric CV); for AUC(0-inf): AUC0-∞; for Tmax: median (range); for half-life: t1/2, geometric mean (geometric CV);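 for all read-outs here: parameters derived from plasma drug levels quantified by LC–MS with internal standards after acetonitrile protein precipitation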
Experimental: (§1) This open‐label cross‐over clinical trial included five study phases that each participant underwent in a randomized order (Table 1 ). There was at least 2‐week washout period between different study days.
(§2) On study days, venous blood samples from all participants were drawn from forearm vein cannulas before the administration of the pretreatment drugs and 5 minutes before and 0.5, 1, 1.5, 2, 3, 4, 6, 8, 12, and 23 hours after the administration of the index drugs for determination of index drug and metabolite concentrations. […] Standardized breakfast was served 1 hour, lunch 3 hours, and snacks 7 and 9 hours after the administration of index drugs.
(§3) Prior to the analysis, the analytes were extracted from the plasma samples with simple protein precipitation. Plasma samples (50 μL) were mixed with acetonitrile solution (200 μL) containing internal standards. The samples were centrifugated and an aliquot of the supernatant was mixed with an equal volume of water before LC–MS analyses.
(§4) The flow rate was 0.3 mL/min, and the gradient program for the mobile phase B was from 20% to 90% over 7 minutes, wash at 90% 7–9.5 minutes, followed by balancing at 20% before next injection. […] The column and mobile phases were the same as above, and the gradient program for the mobile phase B was from 40% to 90% over 5 minutes, wash at 90% 5–7.3 minutes, followed by balancing at 40% before next injection. The quality control samples for each analyte at relevant concentrations were quantified with each batch of plasma samples.
(§5) Individuals with poor metabolism or transport function phenotype were excluded from respective statistical comparisons.

clinical = conditions: human; for AUC(0-inf): AUC0-∞; for half-life: t1/2, geometric mean (geometric CV); for Tmax: median (range)
Experimental: as §1, §2, §3, §4, §5

[2] = phase IV: clopidogrel 300 mg pretreatment + full cocktail
[3] = phase V: gemfibrozil 600 mg b.i.d. 3 days pretreatment + full cocktail
[4] = AUC0-12h, phase II: Geneva cocktail
[5] = in vivo, AUC0-23h, geometric mean (geometric CV), phase II: Geneva cocktail
[6] = in vivo, geometric mean (geometric CV), phase II: Geneva cocktail
[7] = in vivo, phase II: Geneva cocktail
[8] = in vivo, geometric mean (geometric CV), phase IV: clopidogrel 300 mg pretreatment + full cocktail
[9] = in vivo, geometric mean (geometric CV), phase V: gemfibrozil 600 mg b.i.d. 3 days pretreatment + full cocktail
[10] = in vivo, phase IV: clopidogrel 300 mg pretreatment + full cocktail
[11] = in vivo, phase V: gemfibrozil 600 mg b.i.d. 3 days pretreatment + full cocktail

With `C[C@H]1NC(C)(C)CO[C@]1(O)c1cccc(Cl)c1` [OH-bupropion, hydroxybupropion] the “AUC0-23h, geometric mean (geometric CV)” value ([1]; phase II: Geneva cocktail) was 571 (35.3%) ng×h/mL, the “AUC0-∞, geometric mean (geometric CV)” value ([1]; phase II: Geneva cocktail) was 1200 (44.1%) ng×h/mL and the “Cmax, geometric mean (geometric CV)” value ([1]; phase II: Geneva cocktail) was 36.9 (38.6%) ng/mL. For the same compound, the “Tmax, median (range)” value ([1]; phase II: Geneva cocktail) was 3.0 (2.0-4.0) h, the “t1/2, geometric mean (geometric CV)” value ([1]; phase II: Geneva cocktail) was 26.1 (40.1%) h and the “AUC0-23h, geometric mean (geometric CV)” value [1, 2] was 181 (37.6%) ng×h/mL. For the same compound, the “AUC0-∞, geometric mean (geometric CV)” value [1, 2] was 499 (45.3%) ng×h/mL, the “Cmax, geometric mean (geometric CV)” value [1, 2] was 10.3 (39.9%) ng/mL and the “Tmax, median (range)” value [1, 2] was 4.0 (1.5-12.0) h. For the same compound, the “t1/2, geometric mean (geometric CV)” value [1, 2] was 34.6 (42.9%) h, the “AUC0-23h, geometric mean (geometric CV)” value [1, 3] was 585 (43.5%) ng×h/mL and the “AUC0-∞, geometric mean (geometric CV)” value [1, 3] was 1380 (41.2%) ng×h/mL. For the same compound, the “Cmax, geometric mean (geometric CV)” value [1, 3] was 34.1 (44.6%) ng/mL, the “Tmax, median (range)” value [1, 3] was 6.0 (1.0-12.0) h and the “t1/2, geometric mean (geometric CV)” value [1, 3] was 29.4 (51.7%) h.
For `OCc1ncc2n1-c1ccc(Cl)cc1C(c1ccccc1F)=NC2` [1’-OH-midazolam, 1′‐hydroxymidazolam], the “AUC0-23h, geometric mean (geometric CV)” value ([1]; phase II: Geneva cocktail) was 3.54 (37.4%) ng×h/mL, the “AUC0-∞, geometric mean (geometric CV)” value ([1]; phase II: Geneva cocktail) was 3.75 (35.9%) ng×h/mL and the “Cmax, geometric mean (geometric CV)” value ([1]; phase II: Geneva cocktail) was 1.48 (40.9%) ng/mL. The “Tmax, median (range)” value ([1]; phase II: Geneva cocktail) was 1.0 (0.5-1.0) h, the “t1/2, geometric mean (geometric CV)” value ([1]; phase II: Geneva cocktail) was 1.53 (35.6%) h and the “AUC0-23h, geometric mean (geometric CV)” value [1, 2] was 5.03 (42.0%) ng×h/mL. The “AUC0-∞, geometric mean (geometric CV)” value [1, 2] was 5.15 (39.8%) ng×h/mL, the “Cmax, geometric mean (geometric CV)” value [1, 2] was 2.14 (42.5%) ng/mL and the “Tmax, median (range)” value [1, 2] was 1.0 (0.5-1.0) h. For the same compound, the “t1/2, geometric mean (geometric CV)” value [1, 2] was 1.46 (26.6%) h, the “AUC0-23h, geometric mean (geometric CV)” value [1, 3] was 7.33 (41.1%) ng×h/mL and the “AUC0-∞, geometric mean (geometric CV)” value [1, 3] was 7.65 (36.6%) ng×h/mL. The “Cmax, geometric mean (geometric CV)” value [1, 3] was 2.83 (38.7%) ng/mL, the “Tmax, median (range)” value [1, 3] was 1.0 (0.5-1.5) h and the “t1/2, geometric mean (geometric CV)” value [1, 3] was 1.85 (28.8%) h.
`Cn1c(=O)[nH]c2ncn(C)c2c1=O` [Paraxanthine, paraxanthine] showed an AUC(0-t) [1, 4] of 3370 ng·h/mL, an AUC(0-t) ([1]; AUC0-12h, phase IV: clopidogrel 300 mg pretreatment + full cocktail) of 3940 ng·h/mL and an AUC(0-t) ([1]; AUC0-12h, phase V: gemfibrozil 600 mg b.i.d. 3 days pretreatment + full cocktail) of 3360 ng·h/mL. For the same compound, the AUC(0-inf) ([1]; phase II: Geneva cocktail) was 7220 ng·h/mL, the AUC(0-inf) [1, 2] was 8930 ng·h/mL and the AUC(0-inf) [1, 3] was 9160 ng·h/mL. It also gave a Cmax ([1]; phase II: Geneva cocktail) of 374 ng/mL, a Cmax [1, 2] of 436 ng/mL and a Cmax [1, 3] of 358 ng/mL. The Tmax ([1]; phase II: Geneva cocktail) was 4 h, the Tmax [1, 2] was 3 h and the half-life ([1]; phase II: Geneva cocktail) was 11 h. For the same compound, the half-life [1, 2] was 12.8 h and the half-life [1, 3] was 15.9 h.
Work on `CC(NC(C)(C)C)C(=O)c1cccc(Cl)c1` (centres unmarked) [Bupropion, bupropion] yielded an AUC(0-t) (clinical; [5]) of 76.5 ng·h/mL, an AUC(0-inf) (clinical; [6]) of 84.7 ng·h/mL and a Cmax (clinical; [6]) of 20 ng/mL. The half-life (clinical; [7]) was 7.89 h.
Compound `CC(C(=O)O)c1ccc(-c2ccccc2)c(F)c1` (centres unmarked) [Flurbiprofen, flurbiprofen] has an AUC(0-t) (clinical; [5]) of 5550 ng·h/mL, an AUC(0-t) (clinical; in vivo, AUC0-23h, geometric mean (geometric CV), phase IV: clopidogrel 300 mg pretreatment + full cocktail) of 5720 ng·h/mL and an AUC(0-t) (clinical; in vivo, AUC0-23h, geometric mean (geometric CV), phase V: gemfibrozil 600 mg b.i.d. 3 days pretreatment + full cocktail) of 5770 ng·h/mL. For the same compound, the AUC(0-inf) (clinical; [6]) was 5910 ng·h/mL, the AUC(0-inf) (clinical; [8]) was 5940 ng·h/mL and the AUC(0-inf) (clinical; [9]) was 6080 ng·h/mL. For the same compound, the Cmax (clinical; [6]) was 1090 ng/mL, the Cmax (clinical; [8]) was 1180 ng/mL and the Cmax (clinical; [9]) was 1110 ng/mL. It also gave a Tmax (clinical; [10]) of 1.5 h, a Tmax (clinical; [11]) of 1.5 h and a half-life (clinical; [7]) of 4.82 h. For the same compound, the half-life (clinical; [10]) was 4.35 h and the half-life (clinical; [11]) was 4.61 h.
With `COc1ccc2nc(S(=O)(=O)Cc3ncc(C)c(OC)c3C)[nH]c2c1` [Omeprazole sulfone, omeprazole sulfone] the AUC(0-t) ([1]; AUC0-23h, phase II: Geneva cocktail) was 113 ng·h/mL, the AUC(0-t) ([1]; AUC0-23h, phase IV: clopidogrel 300 mg pretreatment + full cocktail) was 156 ng·h/mL and the AUC(0-t) ([1]; AUC0-23h, phase V: gemfibrozil 600 mg b.i.d. 3 days pretreatment + full cocktail) was 124 ng·h/mL. The AUC(0-inf) ([1]; phase II: Geneva cocktail) was 111 ng·h/mL, the AUC(0-inf) [1, 2] was 154 ng·h/mL and the AUC(0-inf) [1, 3] was 122 ng·h/mL. For the same compound, the Cmax ([1]; phase II: Geneva cocktail) was 35.3 ng/mL, the Cmax [1, 2] was 51.2 ng/mL and the Cmax [1, 3] was 41.8 ng/mL. The Tmax ([1]; phase II: Geneva cocktail) was 1.5 h, the Tmax [1, 2] was 1.5 h and the Tmax [1, 3] was 1.5 h. It also gave a half-life ([1]; phase II: Geneva cocktail) of 1.9 h, a half-life [1, 2] of 1.88 h and a half-life [1, 3] of 1.64 h.
With `Cn1c(=O)c2c(ncn2C)n(C)c1=O` [Caffeine, caffeine] the AUC(0-t) (clinical; plasma, oral) was 6270 ng·h/mL, the “Prolongation of t1/2” value ([1]; gemfibrozil pretreatment vs control) was 21% and the AUC(0-t) [1, 4] was 6250 ng·h/mL. The AUC(0-inf) ([1]; phase II: Geneva cocktail) was 7830 ng·h/mL, the Cmax ([1]; phase II: Geneva cocktail) was 1130 ng/mL and the half-life ([1]; phase II: Geneva cocktail) was 4.65 h.

Reference: PMC12087695, “A Phenotyping Tool for Seven Cytochrome P450 Enzymes and Two Transporters: Application to Examine the Effects of Clopidogrel and Gemfibrozil” (Clinical Pharmacology and Therapeutics, 2025)
